From patent US12274781B2, “Use of enzyme-modified isoquercitrin” (SAN-EI GEN F.F.I., INC., priority 2015, dated 2025)
Entries after “also recorded” stand apart in the source; their conditions may differ.

Assays:
[1] = system: saliva secretion in healthy persons; assay: Salivation-promoting effect of aqueous solutions, non-thickened or thickened with xanthan gum (Experimental Examples 1 and 2); format: in vivo, human; conditions: for Amount of salivation (standardized with water): average of 3 panelists, water = 1; for Salivation-promoting (saliva secretion-increasing) effect, in words: Experimental Example 1, aqueous solutions, equimolar in terms of rutin, humans; for Enhancement of the salivation-promoting effect by incorporating a thickening polysaccharide (thickening), in words: Experimental Example 2, 150 μM, 0.1 mass % xanthan gum
Method: Using 3 healthy persons (males, average age: 31.3 years old) as panelists, the salivation-promoting effect of the test samples prepared above was evaluated. Persons whose circadian variation of saliva secretion is relatively similar were selected as the panelists from candidates.
The evaluation was performed using 15 g of each test sample per test according to the following method. As a blank, a test was performed in the same manner using 15 g of water in place of the test samples.
(i) After 15 g of each sample is placed in the mouth and retained for 5 seconds, the sample is swallowed at one time.
(ii) After 5 seconds, absorbent cotton (37.5 mm×37.5 mm×4 mm) is placed under (the back of) the tongue, and retained for 2 minutes.
(iii) The absorbent cotton is removed from under the tongue, and the weight (g) of the cotton is measured. This weight is compared with the weight of the absorbent cotton before being placed in the mouth to calculate the difference in weight.
The above test was performed using the same test sample twice per panelist, and the average was calculated. Based on the average of each panelist, the average and standard deviation of all of the panelists were calculated.
Table 2 and FIG. 1 show the evaluation results (the average of 3 panelists). The results are shown as numerical values (relative values) standardized by setting the saliva secretion amount obtained by using the blank (water) as 1.
Test substances (enzymatically modified isoquercitrin preparation, αG rutin, and quercetin) were dissolved in drinking water, and adjusted so that the rutin content (molarity) of the structure of each compound was 150 μM (see Table 1). Further, xanthan gum was added to the aqueous solutions, so that the content thereof was 0.1 mass %, thus thickening the solutions. For comparison, xanthan gum-free aqueous solutions (an aqueous enzymatically modified isoquercitrin solution, an aqueous αG rutin solution, an aqueous quercetin solution) at a concentration of 150 μM in terms of rutin were prepared in the same manner as in Experimental Example 1.
The salivation-promoting effect of each test sample prepared above was evaluated in the same manner as in Experimental Example 1 (the panelists were also the same). Table 3 and FIG. 2 show the evaluation results (the average of 3 panelists).

saliva secretion in mice = conditions: cited from earlier work
[2] = 75 μM aqueous solution (in terms of rutin or molarity of quercetin), 15 g
[3] = 150 μM aqueous solution (in terms of rutin or molarity of quercetin), 15 g
[4] = 750 μM aqueous solution (in terms of rutin or molarity of quercetin), 15 g
[5] = 3750 μM aqueous solution (in terms of rutin or molarity of quercetin), 15 g
[6] = Non-thickened: 150 μM, xanthan gum-free, viscosity 1 mPa·s
[7] = Thickened: 150 μM with 0.1 mass % xanthan gum, viscosity 20 mPa·s

Compound | Amount of salivation (standardized with water) [1, 2] | Amount of salivation (standardized with water) [1, 3] | Amount of salivation (standardized with water) [1, 4] | Amount of salivation (standardized with water) [1, 5] | Salivation-promoting (saliva secretion-increasing) effect, in words [1] | Enhancement of the salivation-promoting effect by incorporating a thickening polysaccharide (thickening), in words [1] | Amount of salivation (standardized with water) [1, 6] | Amount of salivation (standardized with water) [1, 7] | Effect on hyposalivation (saliva secretion in mice; model mice having disturbance of salivary secretion created by radiation exposure) | Effect on saliva secretion (saliva secretion in mice; normal mice) | Salivation-promoting (saliva secretion-increasing) effect, in words ([1]; listed as α-glucosylrutin)
O=c1c(O)c(-c2ccc(O)c(O)c2)oc2cc(O)cc(O)c12 [quercetin] | 0.989 | 0.826 | 1.032 | 1.132 | not observed; also recorded: no salivation-promoting effect | not observed | 0.826 | 0.868 | reduces hyposalivation | enhances saliva secretion | –
α-glucosylrutin [αG rutin] | 0.910 | 0.841 | 0.872 | 0.932 | not observed | not observed | 0.841 | 0.719 | – | – | no salivation-promoting effect
